From patent US20260306525A1, “COMBINATION THERAPY GLUCOCORTICOIDS AND GINSENOSIDE” (FYTAGORAS B.V., priority 2023, published 2026)

Experiments:
[1] = tested on: mmp13; assay: qPCR mmp13 expression in zebrafish larvae; format: in vivo, zebrafish (Danio rerio); conditions: Example 2, wounded larvae
Procedure: (§1) To determine mRNA levels of specific genes in zebrafish, 3 dpf larvae were used (wounded and non-wounded) and after 6 h of chemical treatments (2 h pre-wounding, 4 h post-wounding), as indicated. Per sample, groups of 15 larvae were collected in TRIzol reagent (Thermo Fisher Scientific, Waltham, MA, USA), and total RNA was isolated using the miRNeasy mini kit (Qiagen, Hilden, Germany). For similar experiments in Hela cells, cells were seeded in 6 well plates, and after 6 h of chemical treatment, the cells were removed from the wells using TRIzol reagent, and total RNA was isolated using the miRNeasy mini kit according to the manufacturer's instructions. The RNA samples were DNAse-treated utilizing the DNA-free™ DNA Removal Kit (Thermo Fisher Scientific). The cDNA synthesis was performed using the iScript cDNA synthesis kit (Bio-Rad Laboratories, Hercules, CA, USA) using 1 μg of RNA per sample. For the PCR reactions, 10 μM of forward and 10 μM of reverse primer, 12.5 μl of iQ SYBR Green Supermix (Bio-Rad), and 2 μl of cDNA were added to the qPCR reaction mixture. […] The reactions were performed on a MyiQ-single-color real-time PCR detection system (Bio-Rad Laboratories) with initial denaturation for 3 min at 95° C. and 40 cycles of 15 s at 95.5° C., 15 s at 60° C., and 30 s at 72° C. Cycle threshold values (Ct values, i.e. the cycle numbers at which a threshold value of the fluorescence intensity was reached) were determined for each sample. The gene expression level for each sample was normalized using the expression of ppial (peptidylprolyl isomerase Ab (cyclophilin A)) for zebrafish samples, 18S rRNA for human cells. The fold change per sample (compared to the respective control group) was calculated using the ΔΔCt method.

[2] = tested on: zebrafish embryos; conditions: in vivo
Procedure: Fish Embryo Acute Toxicity Test (FET) was performed to determine the tolerated doses of the studied compounds. […] A range of three test concentrations (100, 120, and 150 μM) of Rg1, Rh1, and F1 and (25, 50, and 75M) of PPT was used. […] Stock solutions were made in DMSO, and final dilutions in egg water (60 μg/mL Instant Ocean Sea salts and 0.0025% methylene blue), such that the final DMSO concentration were 0.01%. The following controls were used: a negative control (nC, egg water), a solvent control (sC, 0.01% DMSO in egg water), and positive control (pC), 4 mg/L 3,4-dichloroaniline (Sigma-Aldrich, St. Louis, MO, USA) in egg water.
Embryos were collected around at 1.5 hpf and distributed over standard twenty-four well plates (10 embryos per well), with each well containing 2 mL of test solution. […] Five 24-well plates were prepared, each with 3 wells containing the Rg1, F1, or Rh1 solutions (100, 120, 150 μM), 3 wells containing the PPT (25, 50, and 75 μM), two for nC and sC, and one for pC (on each plate, 7 wells remained empty). All solutions were refreshed daily.
The plates were kept at a temperature between 26 and 27° C. and exposed to a 12 h light and 12 h dark cycle. At 96, and 120 hpf, the average survival rate (in %) for all experimental groups was determined. Additionally, hatching was recorded at 48 and 72 hpf. Survival rates for the studied compound and pC-treated groups from the five individual plates were averaged.

[3] = tested on: pck1; assay: qPCR pck1 expression in zebrafish larvae; format: in vivo, zebrafish (Danio rerio); conditions: for pck1 expression, short-term treatment / pck1 expression, long-term treatment: 5 dpf, beclomethasone 10 μM, Rg1 50 μM or combination; for pck1 expression, long-term treatment: 5 days
Procedure: (§2) […] Groups of 15 larvae were collected in TRIzol reagent (ThermoFisher) and total RNA was isolated using miRNeasy mini kit (Qiagen, Hilden, Germany). For experiments in HeLa cells, cells were seeded in 6 well plates and after treatment, the cells were removed from the wells using TRIzol reagent and mRNA was isolated using miRNeasy mini kit (Qiagen) according to the manufacturer's instructions. The RNA samples were DNAse-treated utilizing the DNA-free™ DNA Removal Kit (ThermoFisher Scientific). The cDNA synthesis was performed using the iScript cDNA synthesis kit (Bio-Rad Laboratories, Hercules, CA, USA) using 1 μg of RNA per sample. For qPCR, 10 μM of forward primer and 10 μM of reverse primer, 12.5 μl of IQ SYBR Green Supermix (Bio-Rad Laboratories), and 2 μl of cDNA were added to the qPCR reaction mixture. […] The qPCR reactions were performed on a MyiQ-single-color real-time PCR detection system (Bio-Rad Laboratories), with initial denaturation for 3 min, 95° C., and 40 cycles of 15 s at 95.5° C., 15 s at 60° C., and 30 s at 72° C. Cycle threshold values (Ct values, i.e. the cycle numbers at which a threshold value of the fluorescence intensity was reached) were determined for each sample. The gene expression level for each sample was normalized using the expression of ppial (peptidylprolyl isomerase Ab (cyclophilin A)) for zebrafish samples, and 18S rRNA for human cells. The fold change per sample (compared to the respective control group) was calculated using the […]Ct method.
as §1, with “To determine mRNA levels of specific genes in zebrafish, 3 dpf larvae were used (wounded and non-wounded) and after 6 h of chemical treatments (2 h pre-wounding, 4 h post-wounding), as indicated.” left out

[4] = tested on: nfkbiaa; assay: qPCR nfkbiaa expression in zebrafish larvae; format: in vivo, zebrafish (Danio rerio); conditions: for nfkbiaa expression: Example 2, 6 h treatment; for nfkbiaa expression, short-term treatment / nfkbiaa expression, long-term treatment: 5 dpf, beclomethasone 10 μM, Rg1 50 μM or combination; for nfkbiaa expression, short-term treatment: 6 h; for nfkbiaa expression, long-term treatment: 5 days
Procedure: as §2
as §1, with “To determine mRNA levels of specific genes in zebrafish, 3 dpf larvae were used (wounded and non-wounded) and after 6 h of chemical treatments (2 h pre-wounding, 4 h post-wounding), as indicated.” left out

[5] = tested on: zebrafish larvae; assay: larval body length; conditions: for larval length: Example 2, 5 dpf; for larval length at 5 dpf: 0-5 dpf, 10 μM beclomethasone, 50 μM Rg1 or combination
Procedure: In experiments in which the length of regenerated tail fin tissue after wounding, or the larval body length, was used as a readout, chemical treatments were started at 2 hours post-fertilization (hpf) and continued until 5 dpf, as indicated (15 larvae per treatment group). During this period, solutions were refreshed daily. For the regeneration experiments, tail fins were amputated at 2 dpf. At 5 dpf, larvae were fixed overnight in 4% PFA at 4° C. For determination of the larval length and the regeneration of the tail fins, larvae were imaged using a LeicaMZ16FA fluorescence stereomicroscope supported by LAS 3.7 software. The length of the entire larva or the newly grown tissue was measured using ImageJ software. The newly grown tissue can be visually distinguished from the old tissue, enabling precise measurement of its length.

[6] = tested on: gr; assay: Gr transactivation activity in Tg(9xGCRE-HSV.UI23:EGFP)ia20 reporter larvae; format: in vivo, zebrafish (Danio rerio); conditions: for GFP fluorescence intensity (Gr transactivation): Example 2, 24 h, 3 dpf
Procedure: (§3) To investigate the Gr transactivation activity in zebrafish larvae, the Tg(9xGCRE-HSV.UI23:EGFP)^ia20 reporter line was used, which expresses enhanced green fluorescent protein (EGFP) under the control of a promoter containing an array of nine GREs. […] The integrated intensity of the EGFP signal in the larvae was determined using ImageJ software.
as §3, with “Tg(9xGCRE-HSV.UI23:EGFP^ia20)” for “Tg(9xGCRE-HSV.UI23:EGFP)^ia20”

[7] = 3 dpf, wounded larvae, 6 h, 10 μM beclomethasone, 50 μM Rg1 or combination

SMILES | mmp13 expression [1] | concentration until which no effects on hatching and survival were observed [2] [µM] | concentration with minimal effects on hatching and survival [2] [µM] | pck1 expression ([3]; Example 2, 6 h treatment) | nfkbiaa expression [4] | larval length [5] | GFP fluorescence intensity (Gr transactivation) [6] | concentration with considerable effects on hatching and survival [2] [µM] | pck1 expression [3, 7] | pck1 expression, short-term treatment ([3]; 6 h) | pck1 expression, long-term treatment [3] | nfkbiaa expression, short-term treatment [4] | nfkbiaa expression, long-term treatment [4] | larval length at 5 dpf [5] | relative EGFP intensity (Gr transactivation) ([6]; 24 h from 2 dpf, 10 μM GC, 50 μM Rg1 or combination)
CC(C)=CCC[C@](C)(O[C@@H]1O[C@H](CO)[C@@H](O)[C@H](O)[C@H]1O)[C@H]1CC[C@]2(C)[C@@H]1[C@H](O)C[C@@H]1[C@@]3(C)CC[C@H](O)C(C)(C)[C@@H]3[C@@H](O)C[C@]12C [F1] | Only a minor effect | 100 | 120 | did not increase the expression | did not increase the expression | did not show any side effects | none of the ginsenosides PPT, F1, Rh1, and Rg1 altered the fluorescence intensity |  |  |  |  |  |  |  | 
CC(C)=CCC[C@](C)(O)[C@H]1CC[C@]2(C)[C@@H]1[C@H](O)C[C@@H]1[C@@]3(C)CC[C@H](O)C(C)(C)[C@@H]3[C@@H](O)C[C@]12C [PPT, Protopanaxatriol] | Only a minor effect | 50 |  | did not increase the expression | did not increase the expression | minor effect on larval length | none of the ginsenosides PPT, F1, Rh1, and Rg1 altered the fluorescence intensity | 75 |  |  |  |  |  |  | 
CC(C)=CCC[C@](C)(O[C@@H]1O[C@H](CO)[C@@H](O)[C@H](O)[C@H]1O)[C@H]1CC[C@]2(C)[C@@H]1[C@H](O)C[C@@H]1[C@@]3(C)CC[C@H](O)C(C)(C)[C@@H]3[C@@H](O[C@@H]3O[C@H](CO)[C@@H](O)[C@H](O)[C@H]3O)C[C@]12C [Rg1, (3β,6α, 12β)-3,12-Dihydroxydammar-24-ene-6,20-diyl bis-β-D-glucopyranoside] | no effect |  |  | did not increase the expression | did not increase the expression | did not show any side effects | none of the ginsenosides PPT, F1, Rh1, and Rg1 altered the fluorescence intensity |  | did not affect the expression of these genes | did not affect the expression of the genes | did not affect the expression of the genes | did not affect the expression of the genes | did not affect the expression of the genes | did not affect the larval length | did not affect the EGFP signal
CC(C)=CCC[C@](C)(O)[C@H]1CC[C@]2(C)[C@@H]1[C@H](O)C[C@@H]1[C@@]3(C)CC[C@H](O)C(C)(C)[C@@H]3[C@@H](O[C@@H]3O[C@H](CO)[C@@H](O)[C@H](O)[C@H]3O)C[C@]12C [Rh1] | no effect |  |  | did not increase the expression | did not increase the expression | did not show any side effects | none of the ginsenosides PPT, F1, Rh1, and Rg1 altered the fluorescence intensity |  |  |  |  |  |  |  | 
C[C@H]1C[C@H]2[C@@H]3CCC4=CC(=O)C=C[C@]4(C)[C@@]3(Cl)[C@@H](O)C[C@]2(C)[C@@]1(O)C(=O)CO [beclomethasone, reference compound] |  |  |  |  |  | decrease in larval length | significant increase in the GFP signal throughout the body of the larvae |  | upregulated the expression of pck1 and fkbp5 | upregulated the expression | this upregulation of pck1 and nfkbiaa was significantly reduced after long-term treatment | upregulated the expression | this upregulation of pck1 and nfkbiaa was significantly reduced after long-term treatment | significantly decreased | 
